Series [1] deals with Pyruvate kinase PKM (Homo sapiens) (UniProt P14618). Briefly: Activation of PKM1 assessed as ATP product formation by luminescent pyruvate kinase-luciferase coupled assay.
The target is the same in series [2]. Briefly: Activation of PKM1 assessed as pyruvate formation by fluorescent pyruvate kinase-lactate dehydrogenase coupled assay.
For series [3] the target is unchanged. The series is described as follows: Maximum activation of human PKM2 assessed as ATP product formation at 57 uM after 1 hr by luminescent pyruvate kinase-luciferase coupled assay relative to fructose-1,6-bis-phosphate.
Series [4] deals with O=P(O)(O)OC[C@H]1O[C@@](O)(COP(=O)(O)O)[C@@H](O)[C@@H]1O. Briefly: Activation of human PKM2 assessed as reduction of Km for phosphoenolpyruvate.
Series [5] has the same test system. The series is described as follows: Activation of human PKM2 assessed as effect on Km for ADP.

The source made the active and inactive calls. No cut-off for these calls is given here.

Pyruvate kinase PKM (Homo sapiens), sequence (P14618 2-531 limits assumed): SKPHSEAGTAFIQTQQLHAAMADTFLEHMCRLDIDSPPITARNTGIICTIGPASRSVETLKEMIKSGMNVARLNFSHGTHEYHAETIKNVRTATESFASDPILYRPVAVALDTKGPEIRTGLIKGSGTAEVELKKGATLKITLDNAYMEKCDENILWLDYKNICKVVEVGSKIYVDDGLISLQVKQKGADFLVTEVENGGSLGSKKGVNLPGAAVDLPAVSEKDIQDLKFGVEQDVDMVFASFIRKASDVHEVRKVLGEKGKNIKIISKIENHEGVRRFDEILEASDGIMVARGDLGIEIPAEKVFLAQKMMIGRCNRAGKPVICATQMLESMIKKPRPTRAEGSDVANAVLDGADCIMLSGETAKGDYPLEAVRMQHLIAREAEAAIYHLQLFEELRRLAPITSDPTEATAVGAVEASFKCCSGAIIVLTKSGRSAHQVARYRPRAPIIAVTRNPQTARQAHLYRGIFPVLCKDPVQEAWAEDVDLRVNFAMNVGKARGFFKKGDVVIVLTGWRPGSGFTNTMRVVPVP
Pyruvate kinase PKM (Homo sapiens), P14618, sequence (P14618 whole entry): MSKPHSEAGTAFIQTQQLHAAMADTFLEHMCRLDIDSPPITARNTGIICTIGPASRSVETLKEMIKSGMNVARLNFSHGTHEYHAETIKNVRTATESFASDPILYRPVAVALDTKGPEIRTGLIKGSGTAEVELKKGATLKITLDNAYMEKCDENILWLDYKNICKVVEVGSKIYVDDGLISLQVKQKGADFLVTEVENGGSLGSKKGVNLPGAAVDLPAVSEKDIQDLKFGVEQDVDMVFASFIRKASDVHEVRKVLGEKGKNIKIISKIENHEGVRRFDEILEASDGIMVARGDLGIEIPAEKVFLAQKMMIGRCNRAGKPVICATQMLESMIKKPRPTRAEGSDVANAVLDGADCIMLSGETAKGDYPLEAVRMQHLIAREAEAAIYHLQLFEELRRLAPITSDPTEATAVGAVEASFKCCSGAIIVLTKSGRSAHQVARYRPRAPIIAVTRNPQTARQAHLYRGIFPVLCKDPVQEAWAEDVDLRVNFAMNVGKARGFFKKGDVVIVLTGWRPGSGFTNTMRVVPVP

As for `Cc1cc2c(s1)c1cnn(Cc3ccccc3)c(=O)c1n2C`, the result in series [1] and in series [2] was inactive.
Regarding `COc1ccc(Cn2ncc3c4sc(C)cc4n(C)c3c2=O)cc1F`, the result in series [1] and in series [2] was inactive. Also, the Activity in series [3] came out at 68%.
As for `Cc1cc2c(s1)c1cnn(Cc3c(F)c(F)cc(F)c3F)c(=O)c1n2C`, the outcome in series [1] and in series [2] was inactive. The Activity in series [3] came to 59%.
In the case of `Cc1cc2c(s1)c1cnn(Cc3ccccc3Cl)c(=O)c1n2C`, the result in series [1] and in series [2] was inactive. The Activity in series [3] is 96%.
As to `Cn1c2ccsc2c2ncn(Cc3ccccc3F)c(=O)c21`, the result in series [1] and in series [2] was inactive. The Activity in series [3] came out at 61%.
For `CC(O)c1cc2c(s1)c1cnn(Cc3ccccc3F)c(=O)c1n2C` (stereo not drawn), the outcome in series [1] and in series [2] was inactive. Moreover, in series [3], the Activity was 120%.
For the compound `COc1cccc(Cn2ncc3c4sc([S+](C)[O-])cc4n(C)c3c2=O)c1` (stereo not drawn), the outcome in series [1] and in series [2] was inactive. Further, the Activity in series [3] worked out at 99%.
With `Cc1cc2c(s1)c1cnn(Cc3ccc(F)c(F)c3F)c(=O)c1n2C`, the result in series [1] and in series [2] was inactive. In addition, in series [3], the Activity turned out to be 69%.
Consider `CC(=O)c1cc2c(s1)c1cnn(Cc3ccccc3F)c(=O)c1n2C`, for which the outcome in series [1] and in series [2] was inactive. Besides, in series [3], the Activity was 108%.
In the case of `Cn1c2cc([N+](=O)[O-])sc2c2cnn(Cc3ccccc3F)c(=O)c21`, the result in series [1] and in series [2] was inactive.
On to `CC(C)c1cc2c(s1)c1cnn(Cc3ccccc3F)c(=O)c1n2C`, for which the result in series [1] and in series [2] was inactive. Also, the Activity in series [3] was 106%.
As for `CC(=O)Nc1cc2c(s1)c1cnn(Cc3ccccc3F)c(=O)c1n2C`, the outcome in series [1] and in series [2] was inactive. Further, the Activity in series [3] was 59%.
Turning to `Cc1cc2c(s1)c1cnn(Cc3ccc(C(F)(F)F)cc3F)c(=O)c1n2C`, the outcome in series [1] and in series [2] was inactive. For the same compound, in series [3], the Activity amounted to 59%.
`Cc1cc2c(s1)c1cnn(Cc3ccc(C(F)(F)F)cc3)c(=O)c1n2C`: the result in series [1] and in series [2] was inactive. The Activity in series [3] was determined as 56%.
For the compound `Cc1cc2c(s1)c1cnn(Cc3ccc(F)cc3)c(=O)c1n2C`, the outcome in series [1] and in series [2] was inactive. Moreover, the Activity in series [3] came out at 102%.
Take `Cc1cc2c(s1)c1cnn(Cc3c(F)cccc3Cl)c(=O)c1n2C`: the result in series [1] and in series [2] was inactive. Also, the Activity in series [3] turned out to be 93%.
Regarding `Cc1cc2c(s1)c1cnn(Cc3ccc(Cl)cc3)c(=O)c1n2C`, the result in series [1] and in series [2] was inactive. Besides, the Activity in series [3] turned out to be 91%.
As to `Cc1cc2c(s1)c1cnn(Cc3ccccc3F)c(=O)c1n2C`, the result in series [1] and in series [2] was inactive. For the same compound, the Activity in series [3] amounted to 122%.
For `Cn1c2cc(S(C)(=O)=O)sc2c2cnn(Cc3ccccc3F)c(=O)c21`, the result in series [1], in series [2] and in series [3] was inactive.
Consider `Cn1c2cc([S+](C)[O-])sc2c2cnn(Cc3cccc(O)c3)c(=O)c21` (stereo not drawn), for which the result in series [1] and in series [2] was inactive. The Activity in series [3] came to 102%.
For `Cc1ccc(Cn2ncc3c4sc(C)cc4n(C)c3c2=O)c(F)c1`, the outcome in series [1] and in series [2] was inactive. In addition, the Activity in series [3] was 81%.
As to `Cc1ccc(Cn2ncc3c4sc(C)cc4n(C)c3c2=O)cc1`, the outcome in series [1] and in series [2] was inactive. Further, the Activity in series [3] worked out at 84%.
As for `Cc1cc2c(s1)c1cnn(Cc3cccc(Cl)c3)c(=O)c1n2C`, the result in series [1] and in series [2] was inactive. Besides, in series [3], the Activity was 99%.
With `CSc1cc2c(s1)c1cnn(Cc3ccccc3F)c(=O)c1n2C`, the outcome in series [1] and in series [2] was inactive. Besides, the Activity in series [3] is 96%.
With `COc1ccc(Cn2ncc3c4sc(C)cc4n(C)c3c2=O)cc1`, the result in series [1] and in series [2] was inactive. The Activity in series [3] worked out at 96%.
In the case of `Cc1cc2c(s1)c1cnn(Cc3cccc(F)c3F)c(=O)c1n2C`, the result in series [1] and in series [2] was inactive. The Activity in series [3] turned out to be 73%.
Consider `Cc1cc2c(s1)c1cnn(Cc3cccc(C)c3F)c(=O)c1n2C`, for which the result in series [1] and in series [2] was inactive. Further, the Activity in series [3] was found to be 97%.
On to `Cn1c2cc(B(O)O)sc2c2cnn(Cc3ccccc3F)c(=O)c21`, for which the outcome in series [1] and in series [2] was inactive. Also, in series [3], the Activity turned out to be 101%.
For `Cn1c2ccsc2c2cnn(Cc3ccccc3F)c(=O)c21`, the result in series [1] and in series [2] was inactive. Moreover, in series [3], the Activity was 93%.
As for `Cn1c2cc([S+](C)[O-])sc2c2cnn(Cc3ccccc3F)c(=O)c21` (stereo not drawn), the outcome in series [1] and in series [2] was inactive. Further, the Activity in series [3] worked out at 98%.
Turning to `CCc1cc2c(s1)c1cnn(Cc3ccccc3F)c(=O)c1n2C`, the result in series [1] and in series [2] was inactive. For the same compound, the Activity in series [3] is 105%.
Consider `COC(=O)c1cc2c(s1)c1cnn(Cc3ccccc3F)c(=O)c1n2C`, for which the result in series [1] and in series [2] was inactive. The Activity in series [3] is 70%.
In the case of `Cn1c2cc(C=O)sc2c2cnn(Cc3ccccc3F)c(=O)c21`, the outcome in series [1] and in series [2] was inactive. Also, in series [3], the Activity is 100%.
A word on the Km: it is the substrate concentration at which the rate is half of its maximum. Take “Pyruvate kinase PKM (Homo sapiens), P14618”: the Km in series [4] and in series [5] was 100 µM in each case.
`Cc1cc2c(s1)c1c(C)nn(Cc3ccccc3F)c(=O)c1n2C`: the outcome in series [1] and in series [2] was inactive. Moreover, in series [3], the Activity came out at 56%.
On to `Cc1cc2[nH]c3c(=O)n(Cc4ccccc4F)ncc3c2s1`, for which the outcome in series [1], in series [2] and in series [3] was inactive.
In the case of `Cc1cc2c(s1)c1cnn(Cc3ccccc3F)c(=O)c1n2C(C)C`, the outcome in series [1], in series [2] and in series [3] was inactive.
Consider `Cc1cc2c(s1)c1cnn(Cc3ccc(F)cc3F)c(=O)c1n2C`, for which the outcome in series [1] and in series [2] was inactive.
With `Cc1cc2c(s1)c1cnn(Cc3cccc(F)c3)c(=O)c1n2C`, the result in series [1] and in series [2] was inactive. In series [3], the Activity was found to be 92%.
On to `COc1cc2c(s1)c1cnn(Cc3ccccc3F)c(=O)c1n2C`, for which the outcome in series [1] and in series [2] was inactive.
For the compound `CCn1c2cc(C)sc2c2cnn(Cc3ccccc3F)c(=O)c21`, the outcome in series [1] and in series [2] was inactive. In series [3], the Activity was 96%.
For the compound `Cc1cc2c(s1)c1cnn(Cc3c(F)cccc3F)c(=O)c1n2C`, the outcome in series [1] and in series [2] was inactive. In addition, the Activity in series [3] came out at 94%.
Consider `CCCCCn1ncc2c3sc(C)cc3n(C)c2c1=O`, for which the outcome in series [1] and in series [2] was inactive. In series [3], the Activity came out at 47%.
Consider `Cn1c2cc(C#N)sc2c2cnn(Cc3ccccc3F)c(=O)c21`, for which the outcome in series [1] and in series [2] was inactive. For the same compound, in series [3], the Activity came out at 84%.
As for `Cc1cc2c(s1)c1cnn(-c3ccccc3)c(=O)c1n2C`, the result in series [1], in series [2] and in series [3] was inactive.
For `Cn1c2cc(CO)sc2c2cnn(Cc3ccccc3F)c(=O)c21`, the result in series [1] and in series [2] was inactive. In addition, the Activity in series [3] worked out at 103%.

The values are drawn from ChEMBL document CHEMBL1155492, “Evaluation of thieno[3,2-b]pyrrole[3,2-d]pyridazinones as activators of the tumor cell specific M2 isoform of pyruvate kinase” (Bioorg Med Chem Lett, 2010).
